Assays:
[1] = system: IL-23 induced expression of IL-17A, IL-17F, and IL-22; assay: Rat skin gene expression downstream of intradermal IL-23; assay type: in vivo, Sprague-Dawley rats
Experimental: Ear inflammation was induced in Sprague-Dawley rats by daily intradermal injection of recombinant rat IL-23 on study days 0-3. Treatment with the peptide of SEQ ID NO: 1 (dose response by oral gavage; 1, 3, 10, 30, 100, and 300 mg/kg, twice a day) was initiated prophylactically starting one day prior to and continued through day 3 after induction of inflammation. All rats were humanely euthanized on day 4. An anti-IL-23 monoclonal antibody (administered intraperitoneally on days −1 and day 3) was included in all studies as a positive control and comparator.
Test article was dissolved into phosphate buffer at the appropriate concentrations and aliquoted for each dose and stored at 4° C. Retentions of each dose formulation were obtained after the initial preparation and following the final dose on day 3 into Eppendorf tubes and stored at −80° C. for bioanalysis of test article by LCMS.
Recombinant rat IL-23 was diluted with PBS to a concentration of 75 μg/mL, divided into 2.0 mL aliquots, and stored at −80° C. Daily from day 0 through day 3, rats were anesthetized with isoflurane and IL-23 was intradermally injected (i.d.) into the right ear (1.5 μg in a volume of 20 μL). In the control group, 20 μL of PBS was injected.
Starting the morning prior to IL-23 injection through the evening of day 3, rats were dosed with either vehicle (phosphate buffer) or the peptide of SEQ ID NO: 1 compound twice daily (approximately 10 hours apart between doses during the day) by oral gavage (p.o.) in a volume of 5 mL/kg. In one experiment, the peptide of SEQ ID NO: 1 was also administered subcutaneously (s.c.) in a volume of 5 mL/kg.
Anti-IL-23p19 antibody or isotype antibody was administered via intraperitoneal injection (i.p.) in a volume of 5 mL/kg on days −1 and 3.
At the end of the study, four days after induction with IL-23 (approximately 16 hours after the evening dose on day 3), animals were euthanized by CO2 asphyxiation. The ear tissue was weighed, snap frozen, and stored at −80° C. for gene expression analysis of inflammatory genes (IL-22, IL-17A, IL-17F, TNF). […]

[2] = system: IL-23 induced phosphorylation of STAT3; assay: Ex vivo whole blood phosphorylation of STAT3 assay, FIH 25 mg MAD cohort; assay type: in vivo; conditions: human, 25 mg oral once a day, 3 subjects, 100 ng/mL IL-23
Experimental: An ex vivo whole blood IL-23 induced STAT3 phosphorylation assay was also used to evaluate the systemic pharmacodynamic activity of the orally administered peptide of SEQ ID NO: 1 in the first-in-human study. This proximal IL-23R signaling assay was performed by analyzing IL-23 induced phosphorylation of STAT3 using a flow cytometer. Assay was implemented in the 25 mg MAD cohort, at multiple timepoints on Day 1 and Day 10, where healthy volunteers were given placebo or 25 mg of peptide of SEQ ID NO: 1 orally once a day for 10 consecutive days. On Days 1 and 10, when the assay was performed, subjects received their dose of placebo or peptide of SEQ ID NO: 1 following an overnight fast of approximately 10 hours and remained fasted for approximately 4 hours following dosing. […] Therefore, lower STAT3 phosphorylation as readout by the assay is associated with sufficient exposure to achieve systemic pharmacodynamic activity of orally dosed peptide of SEQ ID NO: 1. Since there is no dilution of blood required, and the readout is more proximal than IFNγ production, and the response is measured in the specific subset of immune cells that respond to IL-23, the pSTAT3 assay is a more sensitive pharmacodynamic readout than IFNγ. […]

Compound: CC(=O)NCCCC[C@@H]1NC(=O)[C@H](Cc2c[nH]c3c(C)cccc23)NC(=O)[C@H]([C@@H](C)O)NC(=O)[C@H](CC(N)=O)NC(=O)[C@@H](NC(C)=O)C(C)(C)SSC(C)(C)[C@@H](C(=O)N[C@@H](Cc2ccc(OCCN)cc2)C(=O)N[C@@H](Cc2ccc3ccccc3c2)C(=O)NC2(C(=O)N[C@@H](CCC(=O)O)C(=O)N[C@@H](CC(N)=O)C(=O)N[C@@H](Cc3cccnc3)C(=O)N(C)CC(N)=O)CCOCC2)NC1=O [SEQ ID NO: 1, Ac-[Pen]*—N-T-[W(7-Me)]-[Lys(Ac)]-[Pen]*-Phe[4-(2-aminoethoxy)]-[2-Nal]-[THP]-E-N-[3-Pal]-Sarc-NH2]
- median IL-17A expression in skin ([1]; all tested doses (1-300 mg/kg b.i.d., oral)): reduced
- reduction of median IL-17A expression in skin ([1]; doses of 10 mg/kg (b.i.d.) or higher): comparable degree as anti-IL-23 antibody
- IL-23 induced expression of IL-17A, IL-17F, and IL-22 in skin ([1]; oral, 1-300 mg/kg b.i.d., days -1 to 3, dose dependent): attenuated
- inhibition of STAT3 phosphorylation in memory CD26high CD4+ T cells, memory CD26high CD8+ T cells and CD26high NKT cells [2]: near-complete inhibition

Reference: patent US11939361B2, “Compositions of peptide inhibitors of Interleukin-23 receptor” (Janssen Pharmaceutica NV, priority 2020, dated 2024)
